US7351399B2, “Prodrugs for phosphorus-containing compounds” (Metabasis Therapeutics, Inc., priority 1998, dated 2008)
Entries after “also recorded” stand apart in the source; their conditions may differ. Like-named read-outs stand apart in the source and are kept apart here.

Experiments:
[1] = Activation by rat liver microsomes (Example D); conditions: 100 μM; 0-2.5 mg/ml microsomal protein; 37° C.; with/without NADP+
Protocol: Methods: The microsomal fraction was prepared from fresh, saline-perfused rat liver. Liver tissue was homogenized in three volumes (w/v) of 0.2 M KH2PO4 buffer pH 7.5, containing 2 mM MgCl2 and 1 mM EGTA. The homogenate was centrifuged at 10,000 g for 1 hour and the supernatant recovered. The supernatant fraction was then recentrifuged at 100,000 g to pellet the microsomal fraction. The pellet was resuspended in homogenization buffer and recentrifuged. This process was repeated twice to ensure complete removal of cytosolic enzyme activities. After the last centrifugation, the microsomal pellet was resuspended in homogenization buffer at a final protein concentration of about 14 mg/ml.
For 7.1, reaction mixtures (0.5 ml) consisted of 0.2 M KH2PO4 pH 7.5, 13 mM glucose-6-phosphate, 2.2 mM NADP^+, 1 unit of glucose-6-phosphate dehydrogenase, 0-2.5 mg/ml microsomal protein and 100 μM 7.1. Reactions were carried out at 37° C. Aliquots were removed from the reaction mixtures at appropriate time points, and extracted with 60% methanol.
Reactions are monitored spectrophotometrically at 340 nm. A decrease in absorbance is indicative of cofactor depletion and thus of the enzymatic oxidation of prodrug to parent compound.

[2] = Oral bioavailability by urinary excretion method (Example M); type: in vivo; conditions: oral gavage 20 or 40 mg/kg parent equivalents; 24 h urine vs i.v. parent ~10 mg/kg; rat
Protocol: (§1) The oral bioavailability of prodrugs of a variety of phosphonic acid FBPase inhibitors was estimated by a urinary excretion method in rat.
Prodrugs of FBPase inhibitors were dissolved in 10% ethanol/90% polyethylene glycol (mw 400) and administered by oral gavage at doses of 20 or 40 mg/kg parent compound equivalents to 6-hour fasted, Sprague Dawley rats (220-240 g). The rats were subsequently placed in metabolic cages and urine was collected for 24 hours. The quantity of parent compound excreted into urine was determined by HPLC analysis. An ODS column eluted with a gradient from potassium phosphate buffer, pH 5.5 to acetonitrile was employed for these measurements. Detection was at 310-325 nm. […] Parent compounds were typically dissolved in dimethyl sulfoxide, and administered via the tail vein in animals that were briefly anesthetized with halothane.
Results for the FBPase inhibitor prodrugs were as follows

[3] = Tissue distribution: activation in tissue homogenates (Example T); type: in vitro ADME, rat; conditions: 100 μM; liver cytosol without microsomes
Protocol: 30.1 is tested for activation in homogenates from various tissues to assess the specificity of liver activation.
Methods: Rats are anaesthetized under halothane and tissues including liver, kidney, brain, heart, stomach, spleen, muscle, lung, and testis are excised and frozen in liquid nitrogen. Tissues are then homogenized in 1 to 3 volumes of 50 mM Tris/HCl, 154 mM KCl, 1 mM EGTA pH 7.4. The homogenate is centrifuged at 10,000 rpm and 4° C. for 30 minutes and the supernatant recovered. Liver cytosol is prepared by centrifuging the liver crude extract for 1 hour at 40,000 rpm and 4° C. Reaction mixtures consist of 50 mM KH2PO4 pH 7.4, 13 mM glucose-6-phosphate, 2 mM NADP^+, 10 units of glucose-6-phosphate dehydrogenase, 100 μM 30.1 and tissue homogenate at a protein concentration of 8.5 mg/ml. Reactions are incubated at 37° C. Aliquots are taken after 0 and 1 hour of incubation, and extracted with 60% methanol. The methanolic extracts are centrifuged at 14,000 rpm, and filtered prior to analysis by HPLC. The samples are loaded onto a YMC C8 column equilibrated with 0.1% TFA and eluted with a methanol gradient to 80%. Ihe activation of 30.1 to ara-AMP is monitored at […]
Results. […] Results of this nature indicate liver specific activation of 30.1.

[4] = Chemical stability in isotonic saline and phosphate buffer (Example A); type: physicochemical; conditions: room temperature
Protocol: Methods: Aliquots of a 10 μg/mL solution of 30.1 in isotonic saline and in 100 mM potassium phosphate buffers at pH 3, 7, and 9 were sampled after 1, 2, 5, and 7 days of incubation at room temperature and analyzed by HPLC. A Beckman Ultrasphere C8 column (4.6×150 mm) was employed and eluted with a gradient from 0.1% v/v trifluoroacetic acid to 80% methanol at a flow rate of 1.0 mL/min. Detection was at 254 nm. Using these conditions, the four isomers of 30.1 were readily separated and quantified. 1.3 was incubated at 100 μM in phosphate buffer at pH 7.4 and analyzed by HPLC as described in Example I following 1 hour of incubation at room temperature.
Thus, prodrugs of the invention are stable under a broad pH range.

normal C57 mice = conditions: for araATP, nmoles/g liver: day 22, 3 hours after final dosing
Protocol: Death and other obvious signs of toxicity such as weight loss, tremors, ruffling fur, hunching, prostration, diarrhea, lethargy, and hyperactivity were monitored. On day 22, 3 hours following the final dosing, mice were sacrificed and livers were removed and homogenized in 3 volumes (to liver weight) of 10% perchloric acid.

[5] = Stability in plasma (Example C)
Protocol: Methods: Compounds were incubated in plasma at 37° C., and aliqouts removed at appropriate time points over the course of 5-8 hours. The aliquots were extracted with 1.5 volumes of methanol and clarified by centrifugation. Supernatants were then evaporated to dryness and the residues reconstituted with 100 μL of isoionic saline and then analyzed by reverse phase HPLC.

[6] = Oral bioavailability from liver ara-ATP area under the curve (Example M); type: in vivo, rat; conditions: for oral bioavailability: hepatic ara-ATP AUC, fasted rats
Protocol: as §1
Methods: Fasted rats were dosed orally and intravenously with 30.1 at 3 and 10 mg/kg. Liver samples were obtained, processed, and analyzed for ara-ATP content as described in Example P.
[“Adenine Arabinoside: An Antiviral Agent” (1975) D. Pavan-Langston, Editor, Raven Press Publishers, New York].

[7] = Liver ara-ATP and ara-hypoxanthine generation after intravenous administration (Example O); type: in vivo, rat; conditions: for liver ara-ATP area under the curve relative to 10 mg/kg equivalent dose of ara-AMP: over 8 hours; for ara-hypoxanthine (araH) in plasma / blood: 30.1 10 and 3 mg/kg, ara-AMP 10 mg/kg; for dose excreted in the form of ara-hypoxanthine in urine: ara-AMP 10 mg/kg equivalent dose
Protocol: The temporal profile of ara-hypoxanthine and ara-ATP generation following intravenous administration of 30.1 and free ara-AMP was compared in the rat. Method: 30.1 and ara-AMP (Sigma) were administered to normal, fasted rats intravenously (in saline) via tail vein catheters. At appropriate time points following drug a administration, animals were lightly anesthetized with halothane. The peritoneal cavity was then opened and a blood sample was obtained from the abdominal vena cava and the liver freeze-clamped and excised. The blood samples were heparinized and plasma was prepared. Plasma samples (100 μL) were mixed with 4 N perchloric acid (40 μL), vortexed, and then clarified by centrifugation. […] The eluent was monitored by UV absorbance at 254 nm. Livers were immediately homogenized in 3 volumes of 10% perchloric acid (w/w), and the extracts clarified by centrifugation at 2500×g (5 minutes). The resulting supernatants were removed and neutralized with 0.3 volumes of 3M KOH/3M KHCO3. […] Renal excretion of araH following i.v. administration of 30.1 or ara-AMP was determined as described in Example Q.

isolated rat hepatocytes = assay: Generation of PMEApp in isolated rat hepatocytes (Example V); type: cell-based; conditions: Dose 250 μM; 4 h; triplicate
Protocol: Methods: Hepatocytes were prepared from fed rats and incubated as described in Example I. Test compounds were prepared in DMSO and-diluted to 250 μM in the cell suspensions. Reactions were performed in triplicate. After 4 hours of incubation, aliquots of the suspension were removed and processed as described in Example I. Quantitation of PMEApp was performed by anion exchange HPLC also as described in Example I.

[8] = Hepatic PMEA-diphosphate generation following oral administration (Example W); type: in vivo, rat; conditions: oral gavage 30 mg/kg PMEA equiv.; 4 h; fasted rats; n = 3
Protocol: Four hours post administration, liver samples were obtained and processed as described in Example […] was analyzed by anion exchange HPLC as described for […] in Example O.

rat embryos in culture = conditions: cited from earlier work
[9] = intravenous; human patients; cited from earlier work

## CC(C)Cn1c(-c2ccc(P3(=O)OCC(CO)CO3)o2)nc2ccc(Cl)cc21 (centres unmarked) [Compound 7.1, 6-Chloro-1-isobutyl-2-{5-[2′-(hydroxymethyl)-propan-1′,3′-yl]phosphono-2-furanyl}benzimidazole]
[1]
  conversion to parent compound: converted to parent compound in the presence, but not in the absence of, NADP^+
[2]
  % OBAV Prodrug: 10.9%

## Nc1ncnc2c1ncn2[C@@H]1O[C@H](COP2(=O)OCCC(c3ccncc3)O2)[C@@H](O)[C@@H]1O (stereo partly drawn) [Compound 30.1, Adenine-9-beta-D-arabinofuranoside-5′-[1-(4-pyridyl)-1,3-propyl]monophosphate]
[3]
  activation to ara-AMP in liver cytosol: does not result in activation
[4]; 10 μg/mL, isotonic saline and 100 mM potassium phosphate buffers pH 3, 7, 9, 7 days, HPLC
  decomposition in saline or buffer: No decomposition
[4]; isotonic saline / 100 mM potassium phosphate buffer pH 3, 7, 9
  period for which stable: at least seven
Normal C57 mice; 22 day period, doses up to 200 mg/kg/d
  safety of administration: safely administered
Normal C57 mice; Dose 20 mg/kg/d
  araATP, nmoles/g liver: 6.6 ± 1.6 nmoles/g liver
Normal C57 mice; Dose 200 mg/kg/d
  araATP, nmoles/g liver: 23.1 ± 9 nmoles/g liver
[5]; 37° C., 5-8 hours, HPLC
  metabolism / degradation in fresh rat plasma: not degraded; also recorded: no evidence of metabolism
[5]; rat plasma
  deamination by adenosine deaminase found in rat plasma: not susceptible
[6]; 3 mg/kg oral vs intravenous
  oral bioavailability: 13.7%
[6]; 10 mg/kg oral vs intravenous
  oral bioavailability: 17.4%
[6]; oral administration
  production of the metabolite araH after oral administration: without production of the metabolite araH
[7]; 30.1 3 mg/kg i.v., rat
  liver ara-ATP area under the curve relative to 10 mg/kg equivalent dose of ara-AMP: 2.1 times higher
[7]; 30.1 10 mg/kg i.v., rat
  liver ara-ATP area under the curve relative to 10 mg/kg equivalent dose of ara-AMP: 5.2 times higher
[7]; i.v., 30.1 10 and 3 mg/kg vs araAMP 10 mg/kg
  liver levels of araATP relative to araAMP (FIG. 1A): Significantly higher
[7]; i.v., rat
  ara-hypoxanthine (araH) in plasma / blood: not detected; also recorded: no ara-hypoxanthine; also recorded: failed to produce detectable amounts; also recorded: no araH (a toxic metabolite) was detected
  dose excreted in the form of ara-hypoxanthine in urine: Nor was ara-hypoxanthine detected in urine
[7]; rat
  liver (araATP)/urine (araH) ratio in comparison with araAMP: substantial shift

## Nc1ncnc2c1ncn2CCOCP1(=O)OCCC(c2cccc(Cl)c2)O1 (centres unmarked) [Compound 31.1, 9-{2-[1-(3-Chlorophenyl)1,3-propylphosphonomethoxy]ethyl}adenine]
Isolated rat hepatocytes
  PMEApp: 52.8 ± 1.5 nmol/g
[8]
  Hepatic PMEApp (nmoles/g/tissue): 11.1 ± 1.8 nmoles/g/tissue

## C=CC(=O)c1ccccc1 [Phenyl vinyl ketone]
Rat embryos in culture
  teratogenic activity: lacks teratogenic activity

## Nc1ncnc2c1ncn2[C@@H]1O[C@H](COP(=O)(O)O)[C@@H](O)[C@@H]1O [araAMP, reference compound]
Normal C57 mice; Dose 20 mg/kg/d
  araATP, nmoles/g liver: 2.5 ± 0.2 nmoles/g liver
Normal C57 mice; Dose 200 mg/kg/d
  araATP, nmoles/g liver: 19.1 ± 4.0 nmoles/g liver
[7]; i.v., rat, listed as AraAMP
  ara-hypoxanthine (araH) in plasma / blood: rapidly and nearly completely converted to araH
[7]; i.v., rat, listed as ara-AMP
  ara-hypoxanthine (araH) in plasma / blood: μmolar levels
[7]; i.v., rat
  dose excreted in the form of ara-hypoxanthine in urine: 19.2%
[7]; rat, compound not detectable in plasma
  plasma half-life relative to 30.1: considerably shorter
[9]
  ara-AMP in plasma: not detected in plasma
